We go through four substances from patent US20100016232A1, “Treatment Of Inflammatory Diseases With Mammal Beta Defensins” (Novozymes A/S, priority 2008, published 2010).

Where no end group is shown, it is not given here.

In series [1] the test system is TNF production from human peripheral blood mononuclear cells (PBMC). Description: TNF production from human PBMC, Cytometric Bead Array. In kind it is cell-based. On the procedure: (§1) Peripheral blood was drawn from healthy volunteers (with approval from the relevant ethical committee in Denmark). Heparinized blood was diluted 1/1 v/v with RPMI and were subjected to Ficoll density centrifugation within 2 h of drawing. Plasma was collected from the top from individual donors and was kept on ice until it was used at 2% in the culture medium (autologous culture medium). Isolated PBMC were resuspended in autologous culture medium and seeded in 96-well culture plates with 255.000 cells per well in a total of 200 μl. […] The concentrations used for stimulation were optimized on 3 different donors in initial experiments, for LPS two different concentrations were used to be sure to be on a cytokine level that is possible to modulate. In some experiments PBMC were treated with Dexamethason and Indomethacin alone and together with LPS or LTA as a control on downregulation of inflammatory cytokines. The supernatants were collected after incubation at 37° C. for 24 hours, and stored at −80° C. until cytokine measurement. Viability was measured by Alamar Blue (Biosource, DALL 1100) in all experiments and in some cases also by MTS (Promega) according to manufacturer's instruction and was in some experiments also judged by counting of the cells by a Nucleocounter.
(§2) Cytokine production in supernatants was measured by flow cytometry with a human inflammation cytometric bead array (CBA) according to manufacturer's instructions (BD) on a FACSarray flow cytometer. The following cytokines were measured: IL-8, IL-1β, IL-10, TNF, IL-12 p70, IL-6. In some experiments, cytokines were measured by ELISA kits from R&D systems (IL-10, TNF-α, IL-1β) according to the manufacturer' instruction.

The test system of series [2] is IL-1β production from human peripheral blood mononuclear cells (PBMC). The experiment in a line: IL-1β production from human PBMC, Cytometric Bead Array. In kind it is cell-based. The settings on record: Table 18. How it is done: as §1, §2
Series [3] has as its system IL-10 production from human peripheral blood mononuclear cells (PBMC). The experiment in a line: IL-10 production from human PBMC, Cytometric Bead Array. In kind it is cell-based. Particulars: Table 17. How it is done: as §1, §2
In a further series the test system is IL-23, human PBMC. The experiment in a line: IL-23 in supernatants of human PBMC, ELISA. In kind it is cell-based. The settings on record: treatment 1 μg/ml. On the procedure: as §1, with “Nucleocounter. […]” for “Nucleocounter.”
Cell culture supernatants were collected and stored at −80° C. Amounts of IL-23 was measured by standard sandwich ELISA using commercially available antibodies and standards according to the manufacturer's protocols (eBioscience).
For orientation: ELISA stands for enzyme-linked immunosorbent assay.

Series [4] concerns TNF production from mouse peripheral blood mononuclear cells (PBMC). Description: TNF production from mouse PBMC, Cytometric Bead Array. Format: cell-based. On the procedure:
Mouse peripheral blood mononuclear cells were isolated from blood of ten NMRI mice. In short, heparinized blood was diluted 1/1 v/v with RPMI and subjected to Ficoll density centrifugation within 2 h of drawing. Plasma was collected from the top and discarded. Isolated PBMC were resuspended in culture medium (RPMI 1640 (Gibco, 42401) w/1% penicillin and streptomycin and 1% L-Glutamine) and seeded in 96-well culture plates with 115.500 cells per well in a total of 200 μl. […] The supernatants were collected after incubation at 37° C. for 24 hours, and stored at −80° C. until cytokine measurement.
Cytokine production in supernatants was measured by flow cytometry with a mouse inflammation cytometric bead array (CBA) according to manufacturer's instructions (BD) on a FACSarray flow cytometer.

The subject of another series is PBMC. The experiment in a line: PBMC viability, Alamar Blue. Format: cell-based, human. The settings on record: human PBMC, Example 2. How it is done:
as §1
On the technique in general: Resazurin is reduced to fluorescent resorufin, in cell work by metabolically active cells.

The mark [5] stands for this setting: LPS 0.6 ng/ml, concentration of control compound not given, Table 16.
Where [6] appears, read: LPS 20 ng/ml, concentration of control compound not given, Table 16.
Where [7] appears, read: LPS 20 ng/ml, treatment 1 μg/ml, Table 21.
The mark [8] stands for this setting: Medium, treatment 1 μg/ml, Table 21.
Setting [9] is: LPS 0.6 ng/ml, concentration of control compound not given.
Where [10] appears, read: LPS 20 ng/ml, concentration of control compound not given.
Where [11] appears, read: Medium, concentration of control compound not given.
Where [12] appears, read: LPS 20 ng/ml, treatment 1 μg/ml.
Setting [13] is: LPS 0.6 ng/ml, test compound 1 μg/ml, Table 16.
Where [14] appears, read: LPS 0.6 ng/ml, test compound 10 μg/ml, Table 16.
Setting [15] is: LPS 20 ng/ml, test compound 1 μg/ml, Table 16.
[16] abbreviates: LPS 20 ng/ml, test compound 10 μg/ml, Table 16.
The mark [17] stands for this setting: Medium, test compound 1 μg/ml, Table 16.
Where [18] appears, read: LPS 0.6 ng/ml, test compound 1 μg/ml.
The mark [19] stands for this setting: LPS 0.6 ng/ml, test compound 10 μg/ml.
Where [20] appears, read: LPS 20 ng/ml, test compound 1 μg/ml.
The mark [21] stands for this setting: LPS 20 ng/ml, test compound 10 μg/ml.

Turning to “Infliximab: antibody which binds to TNF-alpha (Remicade), positive control [reference compound]”, the TNF turned out to be 0 pg/mL in series [1] (setting [5]); 0 pg/mL in series [1] (setting [6]); 1 pg/mL in series [1] (setting [7]); 0 pg/mL in series [1] (Medium, concentration of control compound not given, Table 16); 0 pg/mL in series [1] (setting [8]); 2119 pg/mL in series [4] (setting [12]). This substance also showed a TNF in series [4] (Medium, treatment 1 μg/ml) of 530 pg/mL. For the same substance, the “TNF % of control” value in series [1] (setting [5]) and in series [1] (setting [6]) was 0% each time. Further, the IL-1β in series [2] (setting [9]) amounted to 636 pg/mL; in series [2] (setting [10]), 2704 pg/mL; in series [2] (setting [11]), 0 pg/mL. Besides, the “IL-1β % of control” value in series [2] (setting [9]) came out at 86%; in series [2] (setting [10]), 106%. The IL-10 amounted to 46 pg/mL in series [3] (setting [9]), 63 pg/mL in series [3] (setting [10]) and 0 pg/mL in series [3] (setting [11]). In addition, the figures for the “IL-10 % of control” value in series [3] (setting [9]) and in series [3] (setting [10]) were 69% and 56%, respectively. In addition, the IL-23 turned out to be 227 pg/mL in the series on IL-23, human PBMC (Control (medium)); 356 pg/mL in the series on IL-23, human PBMC (LPS 0.6 ng/ml); 373 pg/mL in the series with IL-23, human PBMC (LPS 20 ng/ml); 349 pg/mL in the series on IL-23, human PBMC (LTA 5 μg/ml).
For “hBD4 variant: consists of amino acids 3-39 of hBD4, SEQ ID NO:5; prepared using chemical synthesis (ELDRICGYGTARCRKKCRSQEYRIGRCPNTYACCLRK; hBD-4 variant consisting of amino acids 3-39 of SEQ ID NO4)”, the TNF is 468 pg/mL in series [1] (setting [13]); 211 pg/mL in series [1] (setting [14]); 778 pg/mL in series [1] (setting [15]); 139 pg/mL in series [1] (setting [16]); 0 pg/mL in series [1] (setting [17]); 0 pg/mL in series [1] (Medium, test compound 10 μg/ml, Table 16). Besides, the “TNF % of control” value in series [1] (setting [13]) is reported as 64%; in series [1] (setting [14]), 29%; in series [1] (setting [15]) it was 36%; in series [1] (setting [16]) it was 6%. The IL-1β in series [2] (setting [18]) is 286 pg/mL; in series [2] (setting [19]), 163 pg/mL; in series [2] (setting [20]), 1004 pg/mL; in series [2] (setting [21]) it was 463 pg/mL; in series [2] (Medium, test compound 1 μg/ml), 0 pg/mL; in series [2] (Medium, test compound 10 μg/ml), 0 pg/mL. Moreover, the “IL-1β % of control” value in series [2] (setting [18]) came to 39%; in series [2] (setting [19]), 22%; in series [2] (setting [20]), 40%; in series [2] (setting [21]), 18%. The IL-10 turned out to be 90 pg/mL in series [3] (setting [18]); 92 pg/mL in series [3] (setting [19]); 187 pg/mL in series [3] (setting [21]); 0 pg/mL in series [3] (Medium, test compound 1 μg/ml); 0 pg/mL in series [3] (Medium, test compound 10 μg/ml). In addition, the “IL-10 % of control” value in series [3] (setting [18]) came to 136%; in series [3] (setting [19]) it was 139%; in series [3] (setting [20]) it was 157%; in series [3] (setting [21]), 168%. The “toxicity to the cells” value in the series with PBMC (40 μg/ml) is recorded as “toxic to the cells”.
Consider “mBD3: mouse beta defensin 3, SEQ ID NO:6; produced recombinantly by the hBD2 protocol (KINNPVSCLRKGGRCWNRCIGNTRQIGSCGVPFLKCCKRK; ends and bridges not checked; cysteine pairing not given here; listed as Mus musculus)”, for which the TNF stood at 384 pg/mL in series [1] (setting [7]); 51 pg/mL in series [1] (LPS 20 ng/ml, treatment 10 μg/ml, Table 21); 166 pg/mL in series [1] (LPS 20 ng/ml, treatment 100 μg/ml, Table 21); 2 pg/mL in series [1] (setting [8]); 2 pg/mL in series [1] (Medium, treatment 10 μg/ml, Table 21); 39 pg/mL in series [1] (Medium, treatment 100 μg/ml, Table 21). The TNF worked out at 1600 pg/mL in series [4] (setting [12]); 297 pg/mL in series [4] (LPS 20 ng/ml, treatment 10 μg/ml); 195 pg/mL in series [4] (LPS 20 ng/ml, treatment 100 μg/ml); 347 pg/mL in series [4] (Medium, treatment 1 μg/ml); 180 pg/mL in series [4] (Medium, treatment 10 μg/ml); 182 pg/mL in series [4] (Medium, treatment 100 μg/ml).
“hBD3: human beta defensin 3, SEQ ID NO:3; prepared using chemical synthesis, Peptide Institute Inc. (GIINTLQKYYCRVRGGRCAVLSCLPKEEQTGKCSTRGRKCCRRKK; ends and bridges not checked; cysteine pairing not given here; listed as Homo sapiens)”: the figures for the TNF in series [1] (setting [13]), in series [1] (setting [15]) and in series [1] (setting [17]) were 528 pg/mL, 451 pg/mL and 0 pg/mL, respectively. For the same substance, the “TNF % of control” value turned out to be 73% in series [1] (setting [13]) and 21% in series [1] (setting [15]). Moreover, the IL-1β in series [2] (setting [18]) was found to be 331 pg/mL; in series [2] (setting [20]) it was 568 pg/mL; in series [2] (Medium, test compound 1 μg/ml), 0 pg/mL. Also, the “IL-1β % of control” value in series [2] (setting [18]) worked out at 45%; in series [2] (setting [20]) it was 22%. Moreover, the IL-10 in series [3] (setting [18]) is 71 pg/mL; in series [3] (Medium, test compound 1 μg/ml) it was 0 pg/mL. Moreover, the “IL-10 % of control” value in series [3] (setting [18]) came to 107%; in series [3] (setting [20]), 137%. For the same substance, the “toxicity to the cells” value with PBMC (10 μg/ml and 40 μg/ml) is given as “toxic to the cells”.
